Where a SMILES comes first, the peptide text is derived from it. Bridges are numbered along the chain shown (N, C = ends).
Molecular target: ACE-2 (Homo sapiens, UniProt Q9BYF1)
Experiment: Fluorometric ACE-2 inhibition assay with peptide M-2195 as substrate
Format: biochemical
Set-up: nucleotides corresponding to the extracellular domain (M1-S740); FLAG; made in house; host or cells: Sf9 insect cells, recombinant baculovirus (transfer vector pA2); enzyme purified from conditioned media
Settings: for Ki: ACE-2, M-2195 substrate; for Inhibition: inhibition of ACE-2 activity, M-2195 substrate, class by % inhibition at ~100 μM and IC50
Procedure: Substrate stock (10 μL of 10× concentration) was added to each well to be tested in blocks of three vertically down the plate. The reaction was monitored on a Spectrafluor Plus (Tecan) at an excitation wavelength of 340 nm and an emission wavelength of 400 nm (+/−35 nm) every 30 seconds for a time period of 10 minutes.
ACE-2 cleaves off the C-terminal lysine from the peptide with a concomitant increase in fluorescence signal.
The assays were performed in 96-well clear-bottom black plates (Costar, 07-200-590). In each well, 0.45 μg (5 pmoles) of ACE-2 is added to 90 μL of an assay solution containing 100 mM TRIS at pH 7.4, 0.1% Tween, and 0.4% DMSO. Substrate stock at 10 μL of 10× concentration is added to each well (for example, 10 μL of 1 mM stock for a final 100 μM concentration). The reaction was monitored on a Spectrafluor Plus (Tecan) at an excitation wavelength of 340 nm and an emission wavelength of 400 nm (+/−35 nm) every 30 seconds up to 10 minutes. All samples were measured in triplicate. […]

Sequence of ACE-2 (Q9BYF1 18-740): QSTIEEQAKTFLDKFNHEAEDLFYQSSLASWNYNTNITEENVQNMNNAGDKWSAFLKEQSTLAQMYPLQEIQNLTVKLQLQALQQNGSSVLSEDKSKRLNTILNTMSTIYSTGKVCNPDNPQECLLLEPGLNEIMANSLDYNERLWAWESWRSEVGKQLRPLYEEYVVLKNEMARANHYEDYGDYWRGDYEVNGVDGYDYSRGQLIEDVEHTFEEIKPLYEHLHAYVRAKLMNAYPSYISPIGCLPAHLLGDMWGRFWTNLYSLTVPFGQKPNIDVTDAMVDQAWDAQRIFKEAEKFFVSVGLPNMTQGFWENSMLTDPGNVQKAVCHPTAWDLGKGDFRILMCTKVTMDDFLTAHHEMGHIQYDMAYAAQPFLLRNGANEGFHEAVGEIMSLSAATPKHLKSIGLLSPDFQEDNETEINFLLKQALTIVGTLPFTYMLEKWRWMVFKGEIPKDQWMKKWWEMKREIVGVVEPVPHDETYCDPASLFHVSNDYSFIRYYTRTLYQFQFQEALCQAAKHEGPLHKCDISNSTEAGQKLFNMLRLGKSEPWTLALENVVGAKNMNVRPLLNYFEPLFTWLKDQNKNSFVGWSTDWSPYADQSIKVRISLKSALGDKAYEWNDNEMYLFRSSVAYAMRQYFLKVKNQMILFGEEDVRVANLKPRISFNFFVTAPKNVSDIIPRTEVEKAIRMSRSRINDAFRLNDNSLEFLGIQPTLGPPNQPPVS

| Structure (SMILES) | Ki | Inhibition |
| --- | --- | --- |
| CSCC[C@@H]1NC(=O)[C@H](Cc2c[nH]c3ccccc23)NC(=O)[C@@H]2CCCN2C(=O)[C@H](CO)NC(=O)[C@H](CCC(N)=O)NC(=O)[C@H](CCCNC(=N)N)NC(=O)[C@H](CCC(N)=O)NC(=O)[C@@H]2CCCN2C(=O)[C@H](CCCCN)NC(=O)[C@@H](NC(=O)[C@H](Cc2c[nH]cn2)NC(=O)[C@H](CC(C)C)NC(=O)[C@H](CCCNC(=N)N)NC(=O)[C@H](CC(=O)O)NC(=O)CNC(C)=O)CSSC[C@@H](C(=O)N[C@@H](CCC(N)=O)C(=O)N[C@@H](Cc2c[nH]cn2)C(=O)N[C@@H](CC(C)C)C(=O)N[C@@H](CC(=O)O)C(=O)N2CCC[C@H]2C(=O)N[C@@H](CCC(=O)O)C(=O)NCC(=O)NCC(=O)NCC(N)=O)NC(=O)[C@H](CCCCN)NC1=O [DX-512] (Ac-GDRLHCKPQRQSPWMKCQHLDPEGGG-NH2; disulfide 6-17) | 0.15 µM | ++++ (signifies very strong inhibition (˜100% inhibition at 100 μM; with IC50 0.15 μM)) |
| CC(=O)NCC(=O)N[C@@H](CC(=O)O)C(=O)N[C@@H](CC(C)C)C(=O)N[C@@H](Cc1c[nH]cn1)C(=O)N[C@@H](C)C(=O)N[C@H]1CSSC[C@@H](C(=O)N[C@H](C(=O)N[C@@H](CC(C)C)C(=O)NCC(=O)N[C@@H](CC(=O)O)C(=O)N2CCC[C@H]2C(=O)N[C@@H](CCC(=O)O)C(=O)NCC(=O)NCC(=O)NCC(N)=O)[C@@H](C)O)NC(=O)[C@H](C)NC(=O)[C@H](Cc2c[nH]c3ccccc23)NC(=O)[C@H](Cc2c[nH]c3ccccc23)NC(=O)[C@@H]2CCCN2C(=O)[C@H](CC(=O)O)NC(=O)CNC(=O)[C@H](CCCNC(=N)N)NC(=O)[C@H](C(C)C)NC(=O)[C@@H]2CCCN2C(=O)[C@H](CCCNC(=N)N)NC1=O [DX-513] (Ac-GDLHACRPVRGDPWWACTLGDPEGGG-NH2; disulfide 6-17) | 0.15 µM | ++++ (signifies very strong inhibition (˜100% inhibition at 100 μM; with IC50 0.15 μM)) |
| CC[C@H](C)[C@H](NC(=O)[C@H](CCCNC(=N)N)NC(=O)[C@H](CO)NC(=O)CNC(C)=O)C(=O)NCC(=O)N[C@H]1CSSC[C@@H](C(=O)N[C@@H](CC(N)=O)C(=O)N[C@@H](Cc2c[nH]c3ccccc23)C(=O)N[C@@H](Cc2c[nH]c3ccccc23)C(=O)N[C@@H](C)C(=O)N2CCC[C@H]2C(=O)NCC(=O)N[C@@H](CCC(=O)O)C(=O)NCC(=O)NCC(=O)NCC(N)=O)NC(=O)[C@H](CCCNC(=N)N)NC(=O)[C@H](CO)NC(=O)[C@H](CC(=O)O)NC(=O)[C@H](CCCNC(=N)N)NC1=O [DX-524] (Ac-GSRIGCRDSRCNWWAPGEGGG-NH2; disulfide 6-11) |  | +++ (signifies strong inhibition (˜99% inhibition at ˜100 μM; with IC50 between 0.4-1 μM)) |
| CC(=O)NCC(=O)N[C@@H](CO)C(=O)N[C@@H](CCCNC(=N)N)C(=O)NCC(=O)N[C@@H](Cc1ccccc1)C(=O)N[C@H]1CSSC[C@@H](C(=O)N[C@@H](CO)C(=O)N[C@@H](Cc2ccccc2)C(=O)N2CCC[C@H]2C(=O)N[C@@H](C)C(=O)N2CCC[C@H]2C(=O)NCC(=O)N[C@@H](CCC(=O)O)C(=O)NCC(=O)NCC(=O)NCC(N)=O)NC(=O)[C@H](CO)NC(=O)[C@H](CO)NC(=O)[C@H](CC(=O)O)NC(=O)[C@H](CCCNC(=N)N)NC1=O [DX-525] (Ac-GSRGFCRDSSCSFPAPGEGGG-NH2; disulfide 6-11) |  | +++ (signifies strong inhibition (˜99% inhibition at ˜100 μM; with IC50 between 0.4-1 μM)) |
| CSCC[C@@H]1NC(=O)[C@H](CCSC)NC(=O)[C@@H]2CCCN2C(=O)[C@H](C)NC(=O)[C@H](Cc2c[nH]c3ccccc23)NC(=O)[C@H](Cc2c[nH]cn2)NC(=O)[C@@H](NC(=O)[C@@H](NC(=O)[C@H](CCC(=O)O)NC(=O)[C@H](Cc2c[nH]c3ccccc23)NC(=O)CNC(=O)[C@H](C)NC(C)=O)C(C)C)CSSC[C@@H](C(=O)N[C@@H](CCCCN)C(=O)N[C@@H](Cc2c[nH]cn2)C(=O)NCC(=O)NCC(=O)N[C@H](C(=O)N[C@@H](CCC(=O)O)C(=O)NCC(=O)NCC(=O)NCC(N)=O)[C@@H](C)O)NC1=O [DX-529] (Ac-AGWEVCHWAPMMCKHGGTEGGG-NH2; disulfide 6-13) |  | +++ (signifies strong inhibition (˜99% inhibition at ˜100 μM; with IC50 between 0.4-1 μM)) |
| CC(=O)N[C@@H](C)C(=O)NCC(=O)N[C@@H](CO)C(=O)N[C@@H](CC(=O)O)C(=O)N[C@@H](Cc1c[nH]c2ccccc12)C(=O)N[C@H]1CSSC[C@@H](C(=O)N[C@@H](Cc2ccccc2)C(=O)N[C@@H](Cc2c[nH]cn2)C(=O)N[C@@H](CCC(N)=O)C(=O)NCC(=O)N[C@H](C(=O)N[C@@H](CCC(=O)O)C(=O)NCC(=O)NCC(=O)NCC(N)=O)[C@@H](C)O)NC(=O)[C@@H]2CCCN2C(=O)[C@H](CC(N)=O)NC(=O)[C@H](CC(N)=O)NC(=O)[C@H](Cc2c[nH]c3ccccc23)NC(=O)[C@H]([C@@H](C)O)NC(=O)CNC1=O [DX-531] (Ac-AGSDWCGTWNNPCFHQGTEGGG-NH2; disulfide 6-13) |  | +++ (signifies strong inhibition (˜99% inhibition at ˜100 μM; with IC50 between 0.4-1 μM)) |
| CC(=O)NCC(=O)N[C@@H](CC(=O)O)C(=O)N[C@@H](CCCNC(=N)N)C(=O)N[C@@H](Cc1ccc(O)cc1)C(=O)N[C@@H](CC(C)C)C(=O)N[C@H]1CSSC[C@@H](C(=O)N[C@@H](CC(N)=O)C(=O)N[C@@H](Cc2c[nH]c3ccccc23)C(=O)N[C@@H](Cc2ccccc2)C(=O)N[C@@H](CC(=O)O)C(=O)N2CCC[C@H]2C(=O)N[C@@H](CCC(=O)O)C(=O)NCC(=O)NCC(=O)NCC(N)=O)NC(=O)[C@H](Cc2ccccc2)NC(=O)[C@H](CCCCN)NC(=O)[C@H](Cc2c[nH]c3ccccc23)NC(=O)[C@@H]2CCCN2C(=O)[C@H](CCCCN)NC(=O)[C@H](CC(=O)O)NC(=O)[C@H](CCCNC(=N)N)NC(=O)[C@H](CCC(N)=O)NC(=O)[C@@H]2CCCN2C(=O)[C@H](CC(C)C)NC1=O [DX-599] (Ac-GDRYLCLPQRDKPWKFCNWFDPEGGG-NH2; disulfide 6-17) |  | ++++ (signifies very strong inhibition (˜100% inhibition at 100 μM; with IC50 0.15 μM)) |
| CC(=O)NCC(=O)N[C@@H](CC(=O)O)C(=O)N[C@@H](Cc1ccc(O)cc1)C(=O)N[C@@H](CO)C(=O)N[C@@H](Cc1c[nH]cn1)C(=O)N[C@H]1CSSC[C@@H](C(=O)N[C@H](C(=O)N[C@@H](Cc2ccc(O)cc2)C(=O)N2CCC[C@H]2C(=O)N[C@@H](CC(=O)O)C(=O)N2CCC[C@H]2C(=O)N[C@@H](CCC(=O)O)C(=O)NCC(=O)NCC(=O)NCC(N)=O)[C@@H](C)O)NC(=O)[C@H](CCCCN)NC(=O)[C@H](Cc2c[nH]c3ccccc23)NC(=O)[C@H](Cc2c[nH]c3ccccc23)NC(=O)[C@@H]2CCCN2C(=O)[C@H](Cc2ccc(O)cc2)NC(=O)[C@H](Cc2ccc(O)cc2)NC(=O)[C@H](CCCNC(=N)N)NC(=O)[C@H](CC(C)C)NC(=O)[C@@H]2CCCN2C(=O)[C@H](CO)NC1=O [DX-600] |  | ++++ (signifies very strong inhibition (˜100% inhibition at 100 μM; with IC50 0.15 μM)) |
| CC[C@H](C)[C@@H]1NC(=O)[C@@H]2CCCN2C(=O)[C@H](CO)NC(=O)[C@@H](NC(=O)[C@@H](NC(=O)[C@H](Cc2ccccc2)NC(=O)CNC(=O)[C@H](CC(=O)O)NC(=O)CNC(C)=O)[C@@H](C)O)CSSC[C@@H](C(=O)N[C@@H](CC(=O)O)C(=O)N[C@@H](CC(C)C)C(=O)NCC(=O)N[C@@H](CC(=O)O)C(=O)N2CCC[C@H]2C(=O)N[C@@H](CCC(=O)O)C(=O)NCC(=O)NCC(=O)NCC(N)=O)NC(=O)[C@H](CCCNC(=N)N)NC(=O)[C@H](Cc2ccccc2)NC(=O)[C@H](Cc2c[nH]c3ccccc23)NC(=O)[C@@H]2CCCN2C(=O)[C@H](Cc2ccccc2)NC(=O)[C@H](CCSC)NC(=O)[C@H](CCCNC(=N)N)NC1=O [DX-601] (Ac-GDGFTCSPIRMFPWFRCDLGDPEGGG-NH2; disulfide 6-17) |  | ++++ (signifies very strong inhibition (˜100% inhibition at 100 μM; with IC50 0.15 μM)) |
